In PMC8222254, “Self-assembly of an anion receptor with metal-dependent kinase inhibition and potent in vitro anti-cancer properties” (Nature Communications, 2021):
Where “and” joins values, the source holds several entries; their conditions need not be identical. Identical values can stand only once.

Legend:
ARPE-19 = test: Quantification of cellular ATP levels (CellTiterGlo); type: cell-based, human; conditions: for % ATP Activity (Average): ARPE-19 cells, average of runs, relative to 0 µM = 100
Protocol: (§1) ARPE-19 and HCT116 p53^+/+ cells were seeded in 96-well opaque plates at a density of 7500 cells/well. 24 h after seeding, cells were treated for 20 h with a range of concentrations of [[…]]^6+, [L2Zn3]^6+, [[…]]^6+, or vehicle control (2-fold serial dilution from 100-3.125 μM) before determining total cellular ATP content by quantification of luminescence (CellTiterGlo® assay, Promega). ATP levels were normalised relative to levels in vehicle control-treated cells.

HCT116 p53+/+ = test: as above; type: cell-based, human; conditions: for % ATP Activity (Average): HCT116 p53+/+ cells, average of runs, relative to 0 µM = 100
Protocol: as §1

[1] = UV-Vis study of hydrolysis of 4-nitrophenyl phosphate; conditions: HEPES pH 7.4 / DMSO, blank 0.0129
Protocol: UV–Vis studies were carried out on a Cary 60 UV–Vis spectrophotometer with Thermo cycler attachment and the wavelength range of 800–250 nm was scanned every hour for 43 h whilst the solution was heated at a constant temperature of 37 °C. Progress of hydrolysation of 4-nitrophenyl phosphate to 4-nitrophenol was measured by monitoring the increase in absorption at the wavelength of 400 nm (typical for 4-nitrophenol). HEPES buffer was prepared at pH 7.4. Solutions were prepared by dissolving the ligand L (3.1 mg, 0.005 mmol) and the relevant metal salt (1.5 equivalents with respect to ligand) in DMSO (5 mL). 4-nitrophenyl phosphate (18.6 mg, 0.050 mmol) was dissolved in HEPES buffer (~10 mL, 60 mmol). These solutions were then combined and made up volumetrically to 50 mL with HEPES buffer. Where required Bu4NH2PO4 (0.5 equivalents with respect to ligand) was added to the HEPES buffer.
5. UV-Vis studies of the hydrolysis of disodium 4-nitrophenylphosphate.
UV-Vis studies were carried out on a Cary 60 UV-Vis spectrophotometer with Thermo cycler attachment and the wavelength range of 800 – 250 nm was scanned every hour for 43 hours whilst the solution was heated at a constant temperature of 37 °C. Progress of hydrolysation of 4-nitrophenyl phosphate to 4-nitrophenol was measured by monitoring the increase in absorption at the wavelength of 400 nm (typical for 4-nitrophenol). HEPES buffer was prepared at pH 7.4.
Solutions were prepared by dissolving the ligand L (3.1 mg, 0.005 mmol) and the relevant metal salt (1.5 equiv w.r.t. ligand) in DMSO (5 mL). 4 -nitrophenyl phosphate (18.6 mg, 0.050 mmol) was dissolved in HEPES buffer (~10 mL , 60 mmol) These solutions were then combined and made up volumetrically to 50 mL with HEPES buffer.
(1.5 equiv w.r.t. ligand) in DMSO (5 mL). Tetrabutylammonium phosphate (0.84 mg, 0.0025 mmol) was dissolved in HEPES buffer (~1 mL, 60 mmol) and these solutions were combined. […]

[2] = target: 140 purified human kinases (Homo sapiens, UniProt P68400); test: Kinase inhibition screen, cell-free 33P ATP assay at 10 μM; type: biochemical; conditions: CK2
Protocol: (§2) [L2Cu3]^6+ and [L2Zn3]^6+ were submitted to the MRC Protein Phosphorylation and Ubiquitination Unit International Centre for Kinase Profiling (University of Dundee) and tested in duplicate (at 10 μM) against a series of 140 purified human kinases in a cell-free kinase assay using ^33P ATP[55],[56]. The kinase gene IDs from the screen were then translated into common IDs (HGNC symbol) using biomaRt package[57],[58] in R[59] and R Studio[60] and used as input to the KinMap programme.

[3] = target: T1, 140 purified human kinases (Homo sapiens, UniProt O15264); test: as above; type: biochemical; conditions: p38d MAPK
T1 sequence (O15264 1-365): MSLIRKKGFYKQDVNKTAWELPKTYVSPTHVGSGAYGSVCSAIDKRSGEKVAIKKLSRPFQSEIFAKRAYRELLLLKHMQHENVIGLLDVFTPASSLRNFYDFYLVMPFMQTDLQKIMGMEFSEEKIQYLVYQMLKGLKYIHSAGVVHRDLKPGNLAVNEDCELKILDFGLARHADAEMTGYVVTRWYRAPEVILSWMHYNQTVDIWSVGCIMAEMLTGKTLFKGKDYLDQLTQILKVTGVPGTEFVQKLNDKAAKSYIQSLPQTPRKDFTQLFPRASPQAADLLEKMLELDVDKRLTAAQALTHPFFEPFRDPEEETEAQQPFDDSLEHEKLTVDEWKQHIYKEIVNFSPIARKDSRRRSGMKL
Protocol: as §2

[4] = target: 140 purified human kinases (Homo sapiens, UniProt O75582); test: as above; type: biochemical; conditions: MSK1
Protocol: as §2

HCT116 p53-/- = test: Confocal imaging of autophagic cells (CYTO-ID); type: cell-based, human; conditions: 3.125 µM, 40 h
Protocol: Cells were seeded in Lumox chamber slides (8-well, Sarstedt) at a density of 1.25 × 10^4 cells/well (ARPE-19) or 5.625 × 10^4 cells/well (HCT116 p53^−/− and HCT116 p53^+/+). 24 h after seeding, cells were treated with 3.125 μM of [L2Cu3]^6+, [L2Zn3]^6+, [L2Mn3]^6+, or vehicle control for 40 h before removal and addition of CYTO-ID Green autophagic dye (1:500 dilution, Enzo Life Sciences) and Hoechst 3342 nuclear counter stain for 30 min at 37 °C. Media was then replaced before imaging using a Zeiss LSM880 confocal laser scanning microscope.

140 purified human kinases (Homo sapiens, UniProt O75582), sequence (O75582 whole entry): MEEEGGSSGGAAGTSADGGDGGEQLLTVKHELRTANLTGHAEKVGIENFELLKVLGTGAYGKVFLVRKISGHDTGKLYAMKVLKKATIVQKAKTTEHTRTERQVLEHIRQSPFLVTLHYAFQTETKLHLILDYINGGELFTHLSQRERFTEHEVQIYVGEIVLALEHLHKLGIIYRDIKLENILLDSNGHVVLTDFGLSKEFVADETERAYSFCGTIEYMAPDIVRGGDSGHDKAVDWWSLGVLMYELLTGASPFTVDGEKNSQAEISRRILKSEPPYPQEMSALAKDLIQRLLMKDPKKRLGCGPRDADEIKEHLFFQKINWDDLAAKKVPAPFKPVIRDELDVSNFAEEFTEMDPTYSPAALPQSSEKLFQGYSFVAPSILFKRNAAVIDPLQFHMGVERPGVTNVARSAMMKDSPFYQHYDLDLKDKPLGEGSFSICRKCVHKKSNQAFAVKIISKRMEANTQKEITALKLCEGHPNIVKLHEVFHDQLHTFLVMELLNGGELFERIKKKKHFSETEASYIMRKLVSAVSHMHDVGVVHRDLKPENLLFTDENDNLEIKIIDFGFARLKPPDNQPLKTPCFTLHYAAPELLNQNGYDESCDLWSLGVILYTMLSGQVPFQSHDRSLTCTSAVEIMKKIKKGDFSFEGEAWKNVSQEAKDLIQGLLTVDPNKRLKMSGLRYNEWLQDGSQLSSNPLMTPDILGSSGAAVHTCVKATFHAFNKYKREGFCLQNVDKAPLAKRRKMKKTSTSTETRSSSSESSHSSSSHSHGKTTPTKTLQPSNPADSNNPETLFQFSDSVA
140 purified human kinases (Homo sapiens, UniProt P68400), sequence (P68400 whole entry): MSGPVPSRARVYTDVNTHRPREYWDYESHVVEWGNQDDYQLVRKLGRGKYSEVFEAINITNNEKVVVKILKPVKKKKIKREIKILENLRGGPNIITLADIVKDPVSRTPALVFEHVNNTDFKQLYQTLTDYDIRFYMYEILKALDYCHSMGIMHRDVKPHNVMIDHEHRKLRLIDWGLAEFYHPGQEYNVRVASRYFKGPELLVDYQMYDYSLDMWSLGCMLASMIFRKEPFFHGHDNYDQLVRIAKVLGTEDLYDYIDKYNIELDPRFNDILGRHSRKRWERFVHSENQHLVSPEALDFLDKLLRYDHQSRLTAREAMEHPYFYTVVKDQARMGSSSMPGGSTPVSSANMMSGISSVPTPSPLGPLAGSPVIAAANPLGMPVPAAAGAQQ

Question: Which “ATP levels relative to vehicle control” value (ARPE-19; ARPE19, 100μM, 20h) does the source give for `CC(=O)[O-].CC(=O)[O-].CC(=O)[O-].CC(=O)[O-].CC(=O)[O-].CC(=O)[O-].[Zn+2].[Zn+2].[Zn+2].c1ccc(-c2csc(NCCN(CCNc3nc(-c4ccccn4)cs3)CCNc3nc(-c4ccccn4)cs3)n2)nc1.c1ccc(-c2csc(NCCN(CCNc3nc(-c4ccccn4)cs3)CCNc3nc(-c4ccccn4)cs3)n2)nc1` [[L2Zn3]6+] here?
Answer: Its value is > 70%.

Question: And the “% ATP Activity (Average)” value (ARPE-19; 3.125 µM complex)?
Answer: Its value is 91.98%.

Question: What about the “% ATP Activity (Average)” value (ARPE-19; 6.25 µM complex) of the same compound?
Answer: Its value is 88.71%.

Question: What about the “% ATP Activity (Average)” value (ARPE-19; 12.5 µM complex) of the same compound?
Answer: The value was 84.92%.

Question: What about the “% ATP Activity (Average)” value (ARPE-19; 25 µM complex) of the same compound?
Answer: The value was 79.86%.

Question: And the “% ATP Activity (Average)” value (ARPE-19; 50 µM complex)?
Answer: Its value is 79.43%.

Question: And the “% ATP Activity (Average)” value (ARPE-19; 100 µM complex)?
Answer: Its value is 73.40%.

Question: What about the “% ATP Activity (Average)” value (HCT116 p53+/+; 3.125 µM complex) of the same compound?
Answer: The value was 71.75%.

Question: What about the “% ATP Activity (Average)” value (HCT116 p53+/+; 6.25 µM complex) of the same compound?
Answer: Its value is 63.36%.

Question: And the “% ATP Activity (Average)” value (HCT116 p53+/+; 12.5 µM complex)?
Answer: Its value is 54.43%.

Question: What about the “% ATP Activity (Average)” value (HCT116 p53+/+; 25 µM complex) of the same compound?
Answer: The value was 46.16%.

Question: And the “% ATP Activity (Average)” value (HCT116 p53+/+; 50 µM complex)?
Answer: The value was 35.67%.

Question: And the “% ATP Activity (Average)” value (HCT116 p53+/+; 100 µM complex)?
Answer: The value was 26.26%.

Question: What about the “ATP levels relative to vehicle control” value (HCT116 p53+/+; HCT116 p53+/+, concentrations of ≥25μM, 20h) of the same compound?
Answer: The value was < 50%.

Question: And the “Concentration of 4-nitrophenol after 24 hours at 37°C” value [1]?
Answer: The value was 0.0361 mM.

Question: And the “% Inhibition, Mean” value [2]?
Answer: Its value is 13%.

Question: What about the “% Inhibition, Run 1 / Run 2” value [2] of the same compound?
Answer: The value was 15% and 12%.

Question: And the mean % activity [2]?
Answer: Its mean % activity is 87%.

Question: What about the “% activity” value ([2]; duplicate runs) of the same compound?
Answer: The value was 85% and 88%.

Question: What about the “% Activation, Mean value” [3] of the same compound?
Answer: The value was 4.4%.

Question: And the “% Inhibition, Mean” value [3]?
Answer: Its value is -4.4%.

Question: And the “% Inhibition, Run 1 / Run 2” value [3]?
Answer: The value was -6% and -2.8%.

Question: What about the mean % activity [3] of the same compound?
Answer: Its mean % activity is 104%.

Question: What about the “% activity” value ([3]; duplicate runs) of the same compound?
Answer: The value was 106% and 103%.

Question: What about the “% Inhibition, Mean” value [4] of the same compound?
Answer: Its value is 22%.

Question: What about the “% Inhibition, Run 1 / Run 2” value [4] of the same compound?
Answer: The value was 27% and 18%.

Question: What about the mean % activity [4] of the same compound?
Answer: Its mean % activity is 78%.

Question: And the “% activity” value ([4]; duplicate runs)?
Answer: Its value is 73% and 82%.

Question: And the “induction of vacuoles / autophagy (CYTO-ID)” value (HCT116 p53-/-)?
Answer: The value was “induced the appearance of vacuoles”.
